Data published in ChEMBL document CHEMBL4402510, “Caprazamycins: Promising lead structures acting on a novel antibacterial target MraY” (Eur J Med Chem, 2019).
≈ marks a conversion by molar mass, not a printed value.

Experiments:
Mycolicibacterium phlei = test: Antibacterial activity against Mycobacterium phlei; assay type: functional
[1] = system: Mycobacterium tuberculosis; test: Antibacterial activity against Mycobacterium tuberculosis H37Rv; assay type: functional
[2] = Antibacterial activity against Mycobacterium avium subsp. avium ATCC 25291; assay type: functional
[3] = system: Mycobacterium avium subsp. paratuberculosis; test: Antibacterial activity against Mycobacterium avium subsp. paratuberculosis ATCC 43015; assay type: functional
Staphylococcus aureus [4] = test: Antibacterial activity against methicillin resistant Staphylococcus aureus No. 5; assay type: functional
[5] = system: Mycobacterium tuberculosis; test: Antibacterial activity against Mycobacterium tuberculosis Kurono; assay type: functional
[6] = system: Mycobacterium tuberculosis; test: Antibacterial activity against Mycobacterium tuberculosis JCM 6384; assay type: functional
[7] = system: Mycolicibacterium smegmatis; test: Antibacterial activity against Mycobacterium smegmatis ATCC 607; assay type: functional
Mycolicibacterium vaccae = test: Antibacterial activity against Mycobacterium vaccae ATCC 15483; assay type: functional
Staphylococcus aureus [8] = test: Antibacterial activity against Staphylococcus aureus FDA 209P; assay type: functional
Escherichia coli [9] = test: Antibacterial activity against Escherichia coli expressing MraY; assay type: functional, organism-based
Staphylococcus aureus [10] = test: Antibacterial activity against methicillin resistant Staphylococcus aureus MS16526; assay type: functional
Bacillus subtilis = test: Antibacterial activity against Bacillus subtilis PCI 219; assay type: functional
Escherichia coli [11] = test: Antibacterial activity against Escherichia coli K-12; assay type: functional

| Structure (SMILES) | MIC (Mycolicibacterium phlei) | MIC [1] | MIC [2] | MIC [3] | MIC (Staphylococcus aureus [4]) | MIC [5] | MIC [6] | MIC [7] | MIC (Mycolicibacterium vaccae) | MIC (Staphylococcus aureus [8]) | MIC50 (Escherichia coli [9]) | IC50 (Escherichia coli [9]) | MIC (Staphylococcus aureus [10]) | MIC (Bacillus subtilis) | MIC (Escherichia coli [11]) |
| --- | --- | --- | --- | --- | --- | --- | --- | --- | --- | --- | --- | --- | --- | --- | --- |
| CCCCCCCCCCCCCCCCCCCCNC(=O)C1=CCN(C)[C@@H]([C@H](O[C@@H]2O[C@H](CN)[C@@H](O)[C@H]2O)[C@H]2O[C@@H](n3ccc(=O)[nH]c3=O)[C@H](O)[C@@H]2O)C(=O)N1C | 1.56 µg/mL (≈ 1.86 µM) | 1.56 µg/mL (≈ 1.86 µM) | 25 µg/mL (≈ 29.9 µM) | 50 µg/mL (≈ 59.7 µM) | > 100 µg/mL | 1.56 µg/mL (≈ 1.86 µM) | > 100 µg/mL | 6.25 µg/mL (≈ 7.47 µM) | 12.5 µg/mL (≈ 14.9 µM) | > 100 µg/mL |  |  |  |  |  |
| CCCCCCCCCCCCCCCCCNC(=O)C1=CCN(C)[C@@H]([C@H](O[C@@H]2O[C@H](CN)[C@@H](O)[C@H]2O)[C@H]2O[C@@H](n3ccc(=O)[nH]c3=O)[C@H](O)[C@@H]2O)C(=O)N1C | > 100 µg/mL | 3.13 µg/mL (≈ 3.94 µM) | 1.56 µg/mL (≈ 1.96 µM) | 6.25 µg/mL (≈ 7.86 µM) |  | 6.25 µg/mL (≈ 7.86 µM) | 6.25 µg/mL (≈ 7.86 µM) | 1.56 µg/mL (≈ 1.96 µM) | > 100 µg/mL |  |  |  |  |  |  |
| CCCCCCCCCCCCCCCC(=O)O[C@H]1CN(C)[C@@H]([C@@H](C)O[C@@H]2O[C@H](CN)[C@@H](O)[C@H]2O)C(=O)N(C)[C@@H]1C(=O)O |  |  |  |  |  |  |  |  |  |  | > 100 µg/mL |  |  |  |  |
| CCCCCCNC[C@H]1O[C@@H](OC[C@H]2O[C@@H](n3ccc(=O)[nH]c3=O)[C@H](O)[C@@H]2O)[C@H](O)[C@@H]1O |  |  |  |  |  |  |  |  |  |  |  | 130 µM |  |  |  |
| CCCCCCCOc1ccc(NC(=O)C2=CCN(C)[C@@H]([C@H](O[C@@H]3O[C@H](CN)[C@@H](O)[C@H]3O)[C@H]3O[C@@H](n4ccc(=O)[nH]c4=O)[C@H](O)[C@@H]3O)C(=O)N2C)cc1 | 3.13 µg/mL (≈ 4.19 µM) | 0.78 µg/mL (≈ 1.04 µM) | 0.78 µg/mL (≈ 1.04 µM) | 0.2 µg/mL (≈ 0.268 µM) | 25 µg/mL (≈ 33.5 µM) | 0.78 µg/mL (≈ 1.04 µM) | 0.1 µg/mL (≈ 0.134 µM) | 0.78 µg/mL (≈ 1.04 µM) | 6.25 µg/mL (≈ 8.37 µM) | 25 µg/mL (≈ 33.5 µM) |  |  | < 0.2 µg/mL | 50 µg/mL (≈ 67 µM) | 3.13 µg/mL (≈ 4.19 µM) |
| CCCCCCc1ccc(NC(=O)C2=CCN(C)[C@@H]([C@H](O[C@@H]3O[C@H](CN)[C@@H](O)[C@H]3O)[C@H]3O[C@@H](n4ccc(=O)[nH]c4=O)[C@H](O)[C@@H]3O)C(=O)N2C)cc1 | 0.39 µg/mL (≈ 0.544 µM) | 0.78 µg/mL (≈ 1.09 µM) | 0.2 µg/mL (≈ 0.279 µM) | 0.78 µg/mL (≈ 1.09 µM) | 12.5 µg/mL (≈ 17.4 µM) | 0.78 µg/mL (≈ 1.09 µM) | 6.25 µg/mL (≈ 8.72 µM) | 1.56 µg/mL (≈ 2.18 µM) | 12.5 µg/mL (≈ 17.4 µM) | > 100 µg/mL |  |  |  |  |  |
| C=CCCCCCCCCCOC(=O)C1=CCN(C)[C@@H]([C@H](O[C@@H]2O[C@H](CN)[C@@H](O)[C@H]2O)[C@H]2O[C@@H](n3ccc(=O)[nH]c3=O)[C@H](O)[C@@H]2O)C(=O)N1C | 50 µg/mL (≈ 70.4 µM) | 12.5 µg/mL (≈ 17.6 µM) | 12.5 µg/mL (≈ 17.6 µM) | 6.25 µg/mL (≈ 8.81 µM) | > 100 µg/mL | 12.5 µg/mL (≈ 17.6 µM) | 12.5 µg/mL (≈ 17.6 µM) | 25 µg/mL (≈ 35.2 µM) | 50 µg/mL (≈ 70.4 µM) | 1.56 µg/mL (≈ 2.2 µM) |  |  | > 100 µg/mL |  |  |
| CCc1ccc(NC(=O)C2=CCN(C)[C@@H]([C@H](O[C@@H]3O[C@H](CN)[C@@H](O)[C@H]3O)[C@H]3O[C@@H](n4ccc(=O)[nH]c4=O)[C@H](O)[C@@H]3O)C(=O)N2C)cc1 | 12.5 µg/mL (≈ 18.9 µM) | 6.25 µg/mL (≈ 9.46 µM) | 100 µg/mL (≈ 151 µM) | > 100 µg/mL | > 100 µg/mL | 3.13 µg/mL (≈ 4.74 µM) | > 100 µg/mL | > 100 µg/mL | > 100 µg/mL | > 100 µg/mL |  |  |  |  |  |
| CC/C=C/CCCCCCCCCCOC(=O)C1=CCN(C)[C@@H]([C@H](O[C@@H]2O[C@H](CN)[C@@H](O)[C@H]2O)[C@H]2O[C@@H](n3ccc(=O)[nH]c3=O)[C@H](O)[C@@H]2O)C(=O)N1C | 12.5 µg/mL (≈ 16.6 µM) | 12.5 µg/mL (≈ 16.6 µM) | 25 µg/mL (≈ 33.3 µM) | 6.25 µg/mL (≈ 8.31 µM) | > 100 µg/mL | 6.25 µg/mL (≈ 8.31 µM) | 12.5 µg/mL (≈ 16.6 µM) | 6.25 µg/mL (≈ 8.31 µM) | 25 µg/mL (≈ 33.3 µM) | 0.78 µg/mL (≈ 1.04 µM) |  |  | 25 µg/mL (≈ 33.3 µM) |  |  |
| CCCCOc1ccc(NC(=O)C2=CCN(C)[C@@H]([C@H](O[C@@H]3O[C@H](CN)[C@@H](O)[C@H]3O)[C@H]3O[C@@H](n4ccc(=O)[nH]c4=O)[C@H](O)[C@@H]3O)C(=O)N2C)cc1 | > 100 µg/mL | 1.56 µg/mL (≈ 2.21 µM) | 3.13 µg/mL (≈ 4.44 µM) | 0.78 µg/mL (≈ 1.11 µM) | > 100 µg/mL | 3.13 µg/mL (≈ 4.44 µM) | 0.78 µg/mL (≈ 1.11 µM) | 25 µg/mL (≈ 35.5 µM) | 100 µg/mL (≈ 142 µM) | > 100 µg/mL |  |  | 3.13 µg/mL (≈ 4.44 µM) | > 100 µg/mL | > 100 µg/mL |
| CCCCCCCCCCCCCCCCCCCCCNC(=O)C1=CCN(C)[C@@H]([C@H](O[C@@H]2O[C@H](CN)[C@@H](O)[C@H]2O)[C@H]2O[C@@H](n3ccc(=O)[nH]c3=O)[C@H](O)[C@@H]2O)C(=O)N1C | 12.5 µg/mL (≈ 14.7 µM) | 1.56 µg/mL (≈ 1.83 µM) | 50 µg/mL (≈ 58.7 µM) | > 100 µg/mL | > 100 µg/mL | 0.78 µg/mL (≈ 0.916 µM) | > 100 µg/mL | 6.25 µg/mL (≈ 7.34 µM) | 12.5 µg/mL (≈ 14.7 µM) | 1.56 µg/mL (≈ 1.83 µM) |  |  | > 100 µg/mL |  |  |
| CCCCCCCc1ccc(NC(=O)C2=CCN(C)[C@@H]([C@H](O[C@@H]3O[C@H](CN)[C@@H](O)[C@H]3O)[C@H]3O[C@@H](n4ccc(=O)[nH]c4=O)[C@H](O)[C@@H]3O)C(=O)N2C)cc1 | 25 µg/mL (≈ 34.2 µM) | 0.78 µg/mL (≈ 1.07 µM) | 1.56 µg/mL (≈ 2.13 µM) | 0.05 µg/mL (≈ 0.0684 µM) | < 0.2 µg/mL | 0.78 µg/mL (≈ 1.07 µM) | 0.1 µg/mL (≈ 0.137 µM) | < 0.2 µg/mL | 1.56 µg/mL (≈ 2.13 µM) | 12.5 µg/mL (≈ 17.1 µM) |  |  | 50 µg/mL (≈ 68.4 µM) | 6.25 µg/mL (≈ 8.55 µM) |  |
| CCCCCCCCCCOC(=O)C1=CCN(C)[C@@H]([C@H](O[C@@H]2O[C@H](CN)[C@@H](O)[C@H]2O)[C@H]2O[C@@H](n3ccc(=O)[nH]c3=O)[C@H](O)[C@@H]2O)C(=O)N1C | > 100 µg/mL | 12.5 µg/mL (≈ 17.9 µM) | 12.5 µg/mL (≈ 17.9 µM) | 12.5 µg/mL (≈ 17.9 µM) |  | 12.5 µg/mL (≈ 17.9 µM) | 50 µg/mL (≈ 71.7 µM) | 50 µg/mL (≈ 71.7 µM) | 0.78 µg/mL (≈ 1.12 µM) | > 100 µg/mL |  |  |  |  |  |
| CCCCCCCCCCCCCCc1ccc(NC(=O)C2=CCN(C)[C@@H]([C@H](O[C@@H]3O[C@H](CN)[C@@H](O)[C@H]3O)[C@H]3O[C@@H](n4ccc(=O)[nH]c4=O)[C@H](O)[C@@H]3O)C(=O)N2C)cc1 | 3.13 µg/mL (≈ 3.78 µM) | 3.13 µg/mL (≈ 3.78 µM) | 6.25 µg/mL (≈ 7.54 µM) | 0.39 µg/mL (≈ 0.47 µM) | 12.5 µg/mL (≈ 15.1 µM) | 3.13 µg/mL (≈ 3.78 µM) | 0.78 µg/mL (≈ 0.941 µM) | 6.25 µg/mL (≈ 7.54 µM) | 6.25 µg/mL (≈ 7.54 µM) | 12.5 µg/mL (≈ 15.1 µM) |  |  | 0.39 µg/mL (≈ 0.47 µM) | > 100 µg/mL | > 100 µg/mL |
| CCCCCCCCCCCCCOC(=O)C1=CCN(C)[C@@H]([C@H](O[C@@H]2O[C@H](CN)[C@@H](O)[C@H]2O)[C@H]2O[C@@H](n3ccc(=O)[nH]c3=O)[C@H](O)[C@@H]2O)C(=O)N1C | 25 µg/mL (≈ 33.8 µM) | 6.25 µg/mL (≈ 8.45 µM) | 3.13 µg/mL (≈ 4.23 µM) | 12.5 µg/mL (≈ 16.9 µM) | 0.78 µg/mL (≈ 1.05 µM) | 50 µg/mL (≈ 67.6 µM) | 12.5 µg/mL (≈ 16.9 µM) | 6.25 µg/mL (≈ 8.45 µM) | 3.13 µg/mL (≈ 4.23 µM) | 12.5 µg/mL (≈ 16.9 µM) |  |  | > 100 µg/mL | 25 µg/mL (≈ 33.8 µM) |  |
| CCCCCCCC/C=C/CCCCCCCCNC(=O)C1=CCN(C)[C@@H]([C@H](O[C@@H]2O[C@H](CN)[C@@H](O)[C@H]2O)[C@H]2O[C@@H](n3ccc(=O)[nH]c3=O)[C@H](O)[C@@H]2O)C(=O)N1C | 1.56 µg/mL (≈ 1.93 µM) | 3.13 µg/mL (≈ 3.88 µM) | 6.25 µg/mL (≈ 7.74 µM) | 0.78 µg/mL (≈ 0.967 µM) | 6.25 µg/mL (≈ 7.74 µM) | 3.13 µg/mL (≈ 3.88 µM) | 1.56 µg/mL (≈ 1.93 µM) | 1.56 µg/mL (≈ 1.93 µM) | 1.56 µg/mL (≈ 1.93 µM) | 6.25 µg/mL (≈ 7.74 µM) |  |  | 0.78 µg/mL (≈ 0.967 µM) | > 100 µg/mL | > 100 µg/mL |
